Columns and labels:
GK rats = experiment: Blood glycosylated hemoglobin (hemoglobin A1c) level of GK rats fed for 12 weeks; type: in vivo, rat; conditions: GK rats fed for 12 weeks with 0.1 wt% in feedstuff
Excerpt: (§1) The improvement effects of the reduced coenzyme Q10 and the oxidized coenzyme Q10 on the glucose tolerance were examined using model GK rats (5 weeks old, male) having Type II diabetes. The rats were fed ad libitum with a powdered feedstuff containing 0.1 percent by weight of the reduced coenzyme Q10 (containing 2 percent by weight of the oxidized coenzyme Q10) or a feedstuff containing 0.1 percent by weight of the oxidized coenzyme Q10. In order to avoid the reduced coenzyme Q10 in the feedstuff mixture from decreasing due to oxidation, the feedstuff was completely replaced with a new one every two days. The control group was fed with a powdered feedstuff free of coenzyme Q10. The glucose tolerance test was conducted four weeks and six weeks after the feeding of the feedstuff mixture was started (n=4 in each group). In the glucose tolerance test, a 50% glucose solution was orally administered at a dose of 4 ml/kg, and the blood glucose level was measured before the administration and 30 minutes, 60 minutes, 90 minutes, and 120 minutes after the administration. The blood glucose level in blood collected from the tail vein was determined with a simple blood glucose meter.
The blood glycosylated hemoglobin (hemoglobin Alc) level of GK rats fed for 12 weeks was measured as in EXAMPLE 1. […]

[1] = system: model GK rats having Type II diabetes; experiment: Glucose tolerance test in model GK rats having Type II diabetes fed coenzyme Q10 feedstuff; type: in vivo, rat
Excerpt: as §1

rats = conditions: daily dose of 1,200 mg/Kg for 52 weeks; cited from earlier work
[2] = 0.1 wt% in feedstuff, after six weeks of administration
[3] = after four weeks and six weeks of administration

Structure (SMILES): COC1=C(OC)C(=O)C(C/C=C(\C)CC/C=C(\C)CC/C=C(\C)CC/C=C(\C)CC/C=C(\C)CC/C=C(\C)CC/C=C(\C)CC/C=C(\C)CC/C=C(\C)CCC=C(C)C)=C(C)C1=O [oxidized coenzyme Q10, reference compound]
- Hemoglobin A1c level (GK rats): 4.93 ± 0.42%
- increase in blood glucose level 30 minutes after the glucose load, in comparison with the control group ([1]; 0.1 wt% in feedstuff, after four weeks of administration, oral glucose load): significantly inhibited
- glucose tolerance in comparison with that after four weeks [1, 2]: further improvements
- blood glucose level from about an hour after the glucose load, in comparison with the control group [1, 3]: no large difference

Structure (SMILES): COC1=C(OC)C(=O)C(C/C=C(\C)CC/C=C(\C)CC/C=C(\C)CC/C=C(\C)CC/C=C(\C)CC/C=C(\C)CC/C=C(\C)CC/C=C(\C)CC/C=C(\C)CCC=C(C)C)=C(C)C1=O [coenzyme Q10]
- toxic effects in chronic toxicity test (rats): no toxic effects

Structure (SMILES): COc1c(O)c(C)c(C/C=C(\C)CC/C=C(\C)CC/C=C(\C)CC/C=C(\C)CC/C=C(\C)CC/C=C(\C)CC/C=C(\C)CC/C=C(\C)CC/C=C(\C)CCC=C(C)C)c(O)c1OC [reduced coenzyme Q10]
- Hemoglobin A1c level (GK rats): 4.17 ± 0.15%
- blood glucose level in comparison with the oxidized coenzyme Q10 group ([1]; 0.1 wt% in feedstuff, after four weeks of administration, all measurement times beginning with 30 minutes after the glucose load): sharply decreased
- glucose tolerance in comparison with that after four weeks [1, 2]: improved to a greater extent
- blood glucose level ([1]; 0.1 wt% in feedstuff, after six weeks of administration, all measurement points of glucose tolerance test): ≤ 200 mg/dL
- increase in blood glucose level after glucose load ([1]; 0.1 wt% in feedstuff, after six weeks of administration, all measurement times): strongly inhibited
- blood glucose level 30 minutes after the peak, versus control group [1, 3]: significantly lower

Reference: US20050113459A1, “Compositions for diabetes” (priority 2002, published 2005)
